Our source for the EC50 values is patent publication US20230062119A1, “USE OF BIOMARKERS IN IDENTIFYING PATIENTS THAT WILL BE RESPONSIVE TO TREATMENT WITH A PRMT5 INHIBITOR” (Merck Sharp & Dohme LLC, priority 2019, published 2023).

Structures are written as SMILES. Where a name gives a salt, the structure may show the parent alone.

In the first assay the target is T1, Full-length (FL)-PRMT5-MEP50 enzyme complex (Homo sapiens, UniProt O14744).
T1 construct: Full-length (FL)-PRMT5-MEP50 enzyme complex (recombinant proteins from baculovirus-transfected Sf21 cells: FL-PRMT5; MW=73837 kDa and FL-MEP50; MW=38614); made in house; host or cells: baculovirus-transfected Sf21 insect cells
T1 sequence (O14744 whole entry): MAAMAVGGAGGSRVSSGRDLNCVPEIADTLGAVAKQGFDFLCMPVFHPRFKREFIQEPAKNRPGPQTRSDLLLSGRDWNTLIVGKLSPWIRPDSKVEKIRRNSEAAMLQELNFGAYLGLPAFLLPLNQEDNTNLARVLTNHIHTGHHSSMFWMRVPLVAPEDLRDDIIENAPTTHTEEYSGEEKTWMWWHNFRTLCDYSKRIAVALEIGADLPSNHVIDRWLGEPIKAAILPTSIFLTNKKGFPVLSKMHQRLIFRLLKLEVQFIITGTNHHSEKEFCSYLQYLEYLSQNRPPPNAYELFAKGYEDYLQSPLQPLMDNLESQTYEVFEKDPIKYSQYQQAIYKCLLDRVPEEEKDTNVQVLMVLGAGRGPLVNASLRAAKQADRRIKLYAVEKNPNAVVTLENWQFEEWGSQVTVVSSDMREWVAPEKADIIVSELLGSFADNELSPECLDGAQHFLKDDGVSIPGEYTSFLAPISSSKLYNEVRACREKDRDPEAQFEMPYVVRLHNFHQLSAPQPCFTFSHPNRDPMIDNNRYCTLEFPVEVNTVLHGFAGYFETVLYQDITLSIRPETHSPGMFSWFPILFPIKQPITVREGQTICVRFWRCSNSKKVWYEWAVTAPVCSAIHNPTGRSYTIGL
T1 sequence (Q9BQA1 whole entry partner): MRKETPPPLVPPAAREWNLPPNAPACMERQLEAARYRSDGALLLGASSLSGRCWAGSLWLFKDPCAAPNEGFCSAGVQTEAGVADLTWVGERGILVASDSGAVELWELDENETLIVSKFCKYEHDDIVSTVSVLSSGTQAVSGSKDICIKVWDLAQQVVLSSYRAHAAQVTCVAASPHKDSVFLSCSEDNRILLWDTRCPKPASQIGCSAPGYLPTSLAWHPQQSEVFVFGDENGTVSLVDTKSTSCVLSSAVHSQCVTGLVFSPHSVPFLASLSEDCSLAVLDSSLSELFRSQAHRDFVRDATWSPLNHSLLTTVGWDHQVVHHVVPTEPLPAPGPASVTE
The assay is described as follows: PRMT5-MEP50 Enzyme Methylation Assay. The format is biochemical. The settings on record: one EC50: 4 parameters single site sigmoidal model; EC50 1: first value of 7 parameters biphasic model; 1.0 nM PRMT5-MEP50, 75 nM biotinylated peptide, 15 μM SAM; read-out: Enzyme Methylation Assay (EC50 or EC50 1). As for the experimental part:
PRMT5-MEP50 biochemical assay is a direct measurement of the methylation activity of the enzyme complex on a short peptide substrate derived from the N-terminus of H4 histone. Methylation experiment is performed with recombinant PRMT5-MEP50 protein complex. The assessment of inhibitory effect of small molecules is measured by the effectiveness of the compounds to inhibit this reaction (EC50).
In this assay, the potency (EC50) of each compound was determined from a twenty-point (1:2 serial dilution; top compound concentration of 100000 nM) titration curve using the following outlined procedure. To each well of a white ProxiPlus 384 well-plate, 100 nL of compound (1% DMSO in final assay volume of 10 μL) was dispensed, followed by the addition of 8 μL of 1× assay buffer (50 mM Bicine pH 8.0, 1 mM DTT, 0.004% Tween20, 0.01% BSA) containing 1.25 nM of Full-length (FL)-PRMT5-MEP50 enzyme complex (recombinant proteins from baculovirus-transfected Sf21 cells: FL-PRMT5; MW=[…] and FL-MEP50; MW=38614) and 1 μL of 150 μM S-(5′-Adenosyl)-L-Methionine Chloride (SAM). Plates were sealed and placed in a 37° C. humidified chamber for a 60 minutes pre-incubation with compound. Subsequently, each reaction was initiated by the addition of 1 μL 1× assay buffer containing 750 nM biotinylated H4R3(Mel) peptide. The final reaction in each well of 10 μL consists of 1.0 nM PRMT5-MEP50, 75 nM biotinylated-peptide, and 15 μM SAM. Methylation reactions proceeded for 150 minutes in a sealed plate at 37° C. Reactions were immediately quenched by the addition of 1 μL of 5% formic acid. Plates were then frozen and shipped to SAMDI™ Tech Inc. to determine the percent conversion from H4R3(Mel) to H4R3(Me2). Dose-response curves were generated by plotting percent effect (% product conversion; Y-axis) vs. Log 10 compound concentrations (X-axis). EC50 values were determined by non-linear regression according to models for either sigmoidal (4 parameters) or biphasic (7 parameters) dose-response curves.
Consider `Cc1ncnc2c1ccn2[C@@H]1O[C@@H]2[C@H](Cc3ccc4cc(Cl)c(N)nc4c3F)CC[C@]2(O)[C@H]1O` [Example 22, (2R,3R,3aS,6S,6aR)-6-[(2-amino-3-chloro-8-fluoroquinolin-7-yl)methyl]-2-(4-methyl-7H-pyrrolo[2,3-d]pyrimidin-7-yl)hexahydro-3aH-cyclopenta[b]furan-3,3a-diol], for which the EC50 is 1 nM. Regarding `Cc1ncnc2c1ccn2[C@@H]1O[C@@H]2[C@H](Cc3ccc4cc(C(F)F)c(N)nc4c3)CC[C@]2(O)[C@H]1O` [Example 23, (2R,3R,3aS,6S,6aR)-6-((2-amino-3-(difluoromethyl)quinolin-7-yl)methyl)-2-(4-methyl-7H-pyrrolo[2,3-d]pyrimidin-7-yl)hexahydro-3aH-cyclopenta[b]furan-3,3a-diol], the EC50 amounted to 0.4 nM. The same measure, in the same setting: under `Nc1nc2cc(C[C@@H]3CC[C@@]4(O)[C@@H]3O[C@@H](n3cc(F)c5c(N)ncnc53)[C@@H]4O)cc(F)c2cc1F` [Example 24, (2R,3R,3aS,6S,6aR)-6-((2-amino-3,5-difluoroquinolin-7-yl)methyl)-2-(4-amino-5-fluoro-7H-pyrrolo[2,3-d]pyrimidin-7-yl)hexahydro-3aH-cyclopenta[b]furan-3,3a-diol] stands 0.4 nM; under `Cc1ncnc2c1ccn2[C@@H]1O[C@@H]2[C@H](Cc3cnc4cc(F)c(N)nc4c3)CC[C@]2(O)[C@H]1O` [Example 25, (2R,3R,3aS,6S,6aR)-6-((6-amino-7-fluoro-1,5-naphthyridin-3-yl)methyl)-2-(4-methyl-7H-pyrrolo[2,3-d]pyrimidin-7-yl)hexahydro-3aH-cyclopenta[b]furan-3,3a-diol, 3HCl], 11 nM. In the case of `Nc1nc2c(F)c(C[C@@H]3CC[C@@]4(O)[C@@H]3O[C@@H](n3ccc5c(N)ncnc53)[C@@H]4O)ccc2cc1Cl` [Example 26, (2R,3R,3aS,6S,6aR)-6-((2-amino-3-chloro-8-fluoroquinolin-7-yl)methyl)-2-(4-amino-7H-pyrrolo[2,3-d]pyrimidin-7-yl)hexahydro-3aH-cyclopenta[b]furan-3,3a-diol], the EC50 worked out at 1.1 nM.

Take `Nc1nc2cc(C[C@@H]3CC[C@@]4(O)[C@@H]3O[C@@H](n3ccc5c(N)ncnc53)[C@@H]4O)c(F)cc2cc1F` [Example 27, (2R,3R,3aS,6S,6aR)-6-[(2-amino-3,6-difluoroquinolin-7-yl)methyl]-2-(4-amino-7H-pyrrolo[2,3-d]pyrimidin-7-yl)hexahydro-3aH-cyclopenta[b]furan-3,3a-diol]: the EC50 was 0.4 nM. The same measure, in the same setting: with `Nc1nc2nc(C[C@@H]3CC[C@@]4(O)[C@@H]3O[C@@H](n3ccc5c(N)ncnc53)[C@@H]4O)ccc2cc1Cl` [Example 28, (2R,3R,3aS,6S,6aR)-6-((7-amino-6-chloro-1,8-naphthyridin-2-yl)methyl)-2-(4-amino-7H-pyrrolo[2,3-d]pyrimidin-7-yl)hexahydro-3aH-cyclopenta[b]furan-3,3a-diol trihydrochloride] the figure was 0.8 nM; with `Nc1nc2cc(C[C@@H]3CC[C@@]4(O)[C@@H]3O[C@@H](n3ccc5c(N)ncnc53)[C@@H]4O)cc(F)c2cc1F` [Example 29, (2R,3R,3aS,6S,6aR)-6-[(2-amino-3,5-difluoroquinolin-7-yl)methyl]-2-(4-amino-7H-pyrrolo[2,3-d]pyrimidin-7-yl)hexahydro-3aH-cyclopenta[b]furan-3,3a-diol], 0.3 nM. In the case of `Nc1nc2cc(C[C@@H]3CC[C@@]4(O)[C@@H]3C[C@@H](n3cc(F)c5c(N)ncnc53)[C@@H]4O)cc(F)c2cc1F` [Example 30, (1S,2R,3aR,4S,6aR)-4-((2-amino-3,5-difluoroquinolin-7-yl)methyl)-2-(4-amino-5-fluoro-7H-pyrrolo[2,3-d]pyrimidin-7-yl)hexahydropentalene-1,6a(1H)-diol], the EC50 stood at 0.7 nM. The same measure, in the same setting: under `Cc1nc(N)c2ccn([C@@H]3C[C@@H]4[C@H](Cc5ccc6cc(Cl)c(N)nc6c5)CC[C@]4(O)[C@H]3O)c2n1` [Example 31, (1S,2R,3aR,4S,6aR)-2-(4-amino-2-methyl-7H-pyrrolo[2,3-d]pyrimidin-7-yl)-4-((2-amino-3-chloroquinolin-7-yl)methyl)hexahydropentalene-1,6a(1H)-diol 2,2,2-trifluoroacetate] stands 0.4 nM; under `Cc1nc(N)c2ccn([C@@H]3C[C@@H]4[C@H](Cc5ccc6cc(F)c(N)nc6c5)CC[C@]4(O)[C@H]3O)c2n1` [Example 32, (1S,2R,3aR,4S,6aR)-2-(4-amino-2-methyl-7H-pyrrolo[2,3-d]pyrimidin-7-yl)-4-((2-amino-3-fluoroquinolin-7-yl)methyl)hexahydropentalene-1,6a(1H)-diol 2,2,2-trifluoroacetate], 0.4 nM; under `Nc1nc2cc(C[C@@H]3CC[C@@]4(O)[C@@H]3C[C@@H](n3cc(F)c5c(N)ncnc53)[C@@H]4O)ccc2cc1F` [Example 33, (1S,2R,3aR,4S,6aR)-4-((2-amino-3-fluoroquinolin-7-yl)methyl)-2-(4-amino-5-fluoro-7H-pyrrolo[2,3-d]pyrimidin-7-yl)hexahydropentalene-1,6a(1H)-diol], 0.6 nM. With `Nc1nc2cc(C[C@@H]3CC[C@@]4(O)[C@@H]3C[C@@H](n3cc(F)c5c(N)ncnc53)[C@@H]4O)ccc2cc1Cl` [Example 34, (1S,2R,3aR,4S,6aR)-4-((2-amino-3-chloroquinolin-7-yl)methyl)-2-(4-amino-5-fluoro-7H-pyrrolo[2,3-d]pyrimidin-7-yl)hexahydropentalene-1,6a(1H)-diol], the EC50 stood at 0.3 nM.

Take `Cc1cn([C@@H]2C[C@@H]3[C@H](Cc4cc(F)c5cc(F)c(N)nc5c4)CC[C@]3(O)[C@H]2O)c2ncnc(N)c12` [Example 35, (1S,2R,3aR,4S,6aR)-4-[(2-amino-3,5-difluoroquinolin-7-yl)methyl]-2-(4-amino-5-methyl-7H-pyrrolo[2,3-d]pyrimidin-7-yl)hexahydropentalene-1,6a(1H)-diol]: the EC50 stood at 0.5 nM. Take `Cc1cn([C@@H]2C[C@@H]3[C@H](Cc4cc(F)c5cc(Cl)c(N)nc5c4)CC[C@]3(O)[C@H]2O)c2ncnc(N)c12` [Example 36, (1S,2R,3aR,4S,6aR)-4-[(2-amino-3-chloro-5-fluoroquinolin-7-yl)methyl]-2-(4-amino-5-methyl-7H-pyrrolo[2,3-d]pyrimidin-7-yl)hexahydropentalene-1,6a(1H)-diol]: the EC50 amounted to 0.5 nM. Still for that read-out and setting: with `Cc1nc(N)c2ccn([C@@H]3C[C@@H]4[C@H](Cc5ccc6cc(Br)c(N)nc6c5)CC[C@]4(O)[C@H]3O)c2n1` [Example 37, (1S,2R,3aR,4S,6aR)-2-(4-amino-2-methyl-7H-pyrrolo[2,3-d]pyrimidin-7-yl)-4-((2-amino-3-bromoquinolin-7-yl)methyl)hexahydropentalene-1,6a(1H)-diol] the figure was 0.3 nM; with `Cc1cn([C@@H]2C[C@@H]3[C@H](Cc4ccc5cc(F)c(N)nc5c4)CC[C@]3(O)[C@H]2O)c2ncnc(N)c12` [Example 38, (1S,2R,3aR,4S,6aR)-4-((2-amino-3-fluoroquinolin-7-yl)methyl)-2-(4-amino-5-methyl-7H-pyrrolo[2,3-d]pyrimidin-7-yl)hexahydropentalene-1,6a(1H)-diol], 0.3 nM. As to `Cc1cn([C@@H]2C[C@@H]3[C@H](Cc4ccc5cc(Cl)c(N)nc5c4)CC[C@]3(O)[C@H]2O)c2ncnc(N)c12` [Example 39, (1S,2R,3aR,4S,6aR)-4-((2-amino-3-chloroquinolin-7-yl)methyl)-2-(4-amino-5-methyl-7H-pyrrolo[2,3-d]pyrimidin-7-yl)hexahydropentalene-1,6a(1H)-diol], the concentration for a half-maximal effect (EC50) came to 0.3 nM. With `Cc1cn([C@@H]2C[C@@H]3[C@H](Cc4ccc5cc(Br)c(N)nc5c4)CC[C@]3(O)[C@H]2O)c2ncnc(N)c12` [Example 40, (1S,2R,3aR,4S,6aR)-4-((2-amino-3-bromoquinolin-7-yl)methyl)-2-(4-amino-5-methyl-7H-pyrrolo[2,3-d]pyrimidin-7-yl)hexahydropentalene-1,6a(1H)-diol], the EC50 came to 0.4 nM. Consider `Nc1nc2cc(C[C@@H]3CC[C@@]4(O)[C@@H]3C[C@@H](n3ccc5c(N)ncnc53)[C@@H]4O)ccc2cc1Br` [Example 41, (1S,2R,3aR,4S,6aR)-4-((2-amino-3-bromoquinolin-7-yl)methyl)-2-(4-amino-7H-pyrrolo[2,3-d]pyrimidin-7-yl)hexahydropentalene-1,6a(1H)-diol 2,2,2-trifluoroacetate], for which the EC50 is 0.7 nM.

The same assay, now with this note: second EC50 of 7 parameters biphasic model; 1.0 nM PRMT5-MEP50, 75 nM biotinylated peptide, 15 μM SAM; read-out: Enzyme Methylation Assay (EC50 2).
In the case of `Cc1ncnc2c1ccn2[C@@H]1O[C@@H]2[C@H](Cc3cnc4cc(F)c(N)nc4c3)CC[C@]2(O)[C@H]1O` [Example 25, (2R,3R,3aS,6S,6aR)-6-((6-amino-7-fluoro-1,5-naphthyridin-3-yl)methyl)-2-(4-methyl-7H-pyrrolo[2,3-d]pyrimidin-7-yl)hexahydro-3aH-cyclopenta[b]furan-3,3a-diol, 3HCl], the EC50 was found to be 8910 nM.
